Laboratory results as given in publication PMC8880129, “Plant- and Bacteria-Derived Compounds with Anti-Philasterides dicentrarchi Activity” (Pathogens, 2022).
Like-named read-outs stand apart in the source and are kept apart here.

How the values were obtained:
[1] = system: Philasterides dicentrarchi; experiment: microbe, parasite or virus in culture; settings: for mortality at 100 µM / inhibition at 100 µM / GI50: Philasterides dicentrarchi; for mortality at 100 µM / Ciliate Mortality 3 h (%): 3 h; for Growth Inhibition 24 h (%) / Ciliate Mortality 3 h (%) / parasites killed after 24 h: 100 μM, culture medium; for Growth Inhibition 24 h (%) / Ciliate Mortality 3 h (%): mean ± SD of three replicates
Description: P. dicentrarchi (isolate I1), obtained from an outbreak of scuticociliatosis in cultured turbot in Galicia, was routinely cultured at 18 °C in complete sterile L15 medium (Leibovitz, PAA Laboratories GmbH, 1% salinity, pH 7.2) containing 90 mg/L each of adenosine, cytidine, and uridine, 150 mg/L of guanosine, 5 g/L of glucose, 400 mg/L of L-α-phosphatidylcholine, 200 mg/L of Tween 80, 10% of heat-inactivated foetal bovine serum (FBS), and 10 mL/L of 100X antibiotic–antimycotic solution (100 units/mL of penicillin G, 0.1 mg/mL of streptomycin sulphate and 0.25 mg/mL of amphotericin B), as previously described. Alternatively, ciliates were cultured in seawater with autoclaved marine bacteria (10^6 cells/mL) supplied as food at 21 °C. The ciliates were cultured under normoxic conditions in tissue culture flasks fitted with vented caps that enabled aeration of the culture medium.
We tested the toxicity to P. dicentrarchi of 26 compounds of natural origin (Table 1). The compounds were prepared in 10 mM stock solutions in dimethyl sulfoxide (DMSO) and maintained at −20 °C until use. In addition, the Pseudomonas H6 lipopeptide surfactant (PS) was prepared, lyophilised and stored at −20 °C [37]. A stock solution of PS was prepared in distilled water (1000 ppm) and diluted in culture medium or seawater at the final concentrations used in each assay and sterile filtered (through 0.2 µm filters) before being added to the parasites or EPC cells.
The anticiliate activity was assayed as previously described, with minor modifications. Ciliates were concentrated by centrifugation at 650× g for 5 min and resuspended in a medium at the concentration required for the assays. All experiments were carried out in triplicate. Wells containing ciliates in a culture medium or seawater without the test compounds were assayed as negative controls. To rule out any possible effects of the solvent (DMSO), triplicate wells with a culture medium or seawater containing the highest concentration of DMSO used (up to 1%) were also included. […] In these assays, the compounds were diluted in 1 mL of culture medium or seawater and added to the wells of 24-well sterile culture plates containing 2.5 × 10^4 ciliates per well, at final concentrations of […], 6.25, 12.5, 25, 50, and 100 µM in culture medium. The effects of the compounds on the motility and morphology of the ciliates were monitored periodically (at 30 min, 1, 2, 3, 24, and 48 h) under an inverted optical microscope. Ciliates were considered dead when they lysed and were not motile. The results obtained are expressed as percentage mortality for each experimental group. To estimate the total number of ciliates per well, the ciliates were inactivated by adding 0.25% glutaraldehyde and counted in a haemocytometer under an optical microscope. The lowest dose of the selected compounds resulting in 100% ciliate mortality (LC100) was assessed at 1, 2, and 3 h after incubation of parasites with sample dilutions (from 0 to 100 μg/mL, in 10 μg intervals). The concentration that inhibited 50% of ciliate growth (GI50), in comparison with the control group, was calculated with Excel software (Microsoft Office; Microsoft, Redmond, WA, USA) by plotting the dose-response data (log dose-per cent of growth inhibition) and applying linear regression (y = mx + b) for data fitting. The values were then calculated from the equation log GI50 = (50 − b)/m, where m is the slope y1 − y2/x1 − x2, and b is the intercept of the line.

[2] = system: P. dicentrarchi; design: method as in PMID 15212284, PMID 21987103, PMID 27334368; settings: cited from earlier work
[3] = system: Philasterides dicentrarchi; experiment: Anticiliate activity, ciliates maintained in seawater (LC100, LC50); assay type: cell-based; settings: 3 h incubation
Description: All experiments were carried out in triplicate.

[4] = Toxicity to EPC cell line, MTT assay; assay type: cell-based, fish; settings: fish
Description: (§1) We used the Epithelioma Papulosum Cyprini (EPC) cell line, acquired from the American Type Culture Collection (ATCC®, Manassas, VA, USA), as a control for toxicity. The cell line, kindly provided by Doctors Pereira-Dopazo and Bandin from the Aquaculture Institute of the University of Santiago de Coompostela, was cultured in MEM medium equilibrated with Hanks’ balanced salts (Gibco, Thermo Fischer Sci., Waltham, MA, USA) supplemented with 10% foetal bovine serum and 10 mL/L of 100X antibiotic–antimycotic solution. Cells were maintained subconfluent at 25 °C in a cell culture incubator and used when the confluence reached 75%.
(§2) Cell viability was then estimated by the MTT (3-(4,5-dimethylthiazol-2-yl)-2,5-diphenyl tetrazolium bromide) assay, as previously described, with minor modifications. Briefly, 100 μL of the MTT solution (1 mg/mL in phosphate-buffered saline; pH 7.2) was added to each well, and plates were incubated at 25 °C for 4 h. The yellow tetrazolium salt of MTT is reduced by mitochondrial dehydrogenases in metabolically active cells to form insoluble purple formazan crystals, which are then dissolved by the addition of DMSO (50 μL/well). Prior to the addition of MTT or DMSO, the plates were washed, and the supernatant was removed. The absorbance was measured at 540 nm in a microplate reader (Multiskan™, Thermo Fischer Sci., Waltham, MA, USA), and the relative cell viability was expressed as the mean percentage of viable cells relative to untreated cells.
(§3) In the viability assay, the possible effect of DMSO was evaluated for each compound by the inclusion of three replicate wells with MEM medium and the same DMSO concentration as in the medium. […] Control cells with only MEM were also included in the assay.

[5] = system: EPC cells; experiment: Toxicity to EPC cell line, MTT assay; assay type: cell-based, fish; settings: 24 h incubation, compound at its GI50 (24 h)
Description: as §1, §2, §3

[6] = read-out: Ciliate Mortality 3 h (%), 100 μM, 3 h, culture medium, mean ± SD of three replicates
[7] = 24 h, read-out: Growth Inhibition 24 h (%), 100 μM, 24 h, culture medium, mean ± SD of three replicates
[8] = 24 h, read-out: GI50 24 h (compound concentration that inhibited 50% of parasite growth)
[9] = 48 h, read-out: GI50 48 h (compound concentration that inhibited 50% of parasite growth)

| Compound | mortality at 100 µM [1, 6] [%] | inhibition at 100 µM [1, 7] [%] | Growth Inhibition 24 h (%) ([1]; 24 h) | further results |
| --- | --- | --- | --- | --- |
| O=c1ccc2ccccc2o1 [Coumarin] | 8 ± 5.9 | 23.5 ± 4.12 | – | – |
| O=C(O)c1ccccc1 [Benzoic acid] | – | – | – | mortality at 100 µM ([1]; read-out: Ciliate Mortality 3 h (%)): 1.64 ± 0.56%; inhibition at 100 µM ([1]; 24 h, read-out: Growth Inhibition 24 h (%)): 17.4 ± 1.2% |
| CC12CCC(CC1)C(C)(C)O2 [Eucalyptol] | 17 ± 8.42 | 35.6 ± 4.21 | – | – |
| Oc1ccc(/C=C/c2cc(O)cc(O)c2)cc1 [resveratrol] | – | – | – | efficacy against P. dicentrarchi [2]: effective |
| O=c1ccc2cc(O)c(O)cc2o1 [Esculetin] | 8.2 ± 5.32 | 15.3 ± 6.32 | – | – |
| OCCc1ccccc1 [Phenylethyl alcohol] | 2.3 ± 1.4 | 30.1 ± 4.63 | – | – |
| O=C(O)CCCC[C@@H]1SC[C@@H]2NC(=O)N[C@@H]21 [Biotin] | 0 | 37 ± 0.72 | – | – |
| C[C@H]1[C@H]2CC[C@H]3[C@@H]4CC=C5C[C@@H](N(C)C)CC[C@]5(C)[C@H]4CC[C@]23CN1C [Conessine] | 50.2 ± 4.5 | > 80 | 84.42 ± 2.42 | GI50 [1, 8]: 12 ± 0.8 µM; GI50 [1, 9]: 11.2 ± 0.65 µM |
| CC(=O)c1c(O)c(C)c(O)c2c1OC1=CC(=O)C(C(C)=O)C(=O)C12C (centres unmarked) [Usnic acid] | 38.3 ± 5.52 | 68.3 ± 3.34 | – | – |
| CC12CCC(CC1=O)C2(C)C (centres unmarked) [Camphor (1r)] | – | – | 77.42 ± 2.7 | Ciliate Mortality 3 h (%) [1]: 0% |
| COc1cc2c(cc1OC)-c1cc3ccc(OC)c(OC)c3c[n+]1CC2 [Palmatine chloride] | 6.8 ± 0.59 | 28.5 ± 4.25 | – | – |
| CCCCOC(=O)c1ccc(O)cc1 [Butyl 4-hydroxybenzoate] | 52.9 ± 2.39 | > 80 | 80.65 ± 2.42 | GI50 [1, 8]: 43.9 ± 6.6 µM; GI50 [1, 9]: 29.2 ± 0.35 µM |
| CC(O)C(=O)[O-].[Na+] (centres unmarked) [Sodium lactate] | – | – | 28.33 ± 3.93 | Ciliate Mortality 3 h (%) [1]: 13.76 ± 4.1% |
| CC1=NCCc2c1[nH]c1cc(O)ccc21.Cl.O.O [Harmalol hydrochloride dihydrate] | – | – | 40.08 ± 4.9 | Ciliate Mortality 3 h (%) [1]: 4.8 ± 1.12% |
| C[C@H]1C(=O)O[C@@H]2CCN3CC=C(COC(=O)[C@](C)(O)[C@]1(C)O)[C@H]23 [Monocrolatine] | – | – | 9.8 ± 2.11 | Ciliate Mortality 3 h (%) [1]: 6.61 ± 1.06% |
| Garlicin [Garlicin 80%] | – | – | 42.47 ± 5.62 | – |
| O=c1ccc2ccc(O)cc2o1 [Umbelliferone] | 2.9 ± 1.89 | 44.9 ± 7.23 | – | – |
| C=CCSCC=C [Diallyl sulfide] | 22.3 ± 5.1 | 38.8 ± 7.32 | – | – |
| O=c1c2cc(O)c(O)cc2oc2cc(O)c([C@@H]3O[C@H](CO)[C@@H](O)[C@H](O)[C@H]3O)c(O)c12 [mangiferin] | – | – | – | efficacy against P. dicentrarchi [2]: effective |
| COc1cc(/C=C/C(=O)CC(=O)/C=C/c2ccc(O)c(OC)c2)ccc1O [curcumin] | – | – | – | efficacy against P. dicentrarchi [2]: effective |
| O=C(/C=C/C=C/c1ccc2c(c1)OCO2)N1CCCCC1 [Piperine] | 42.6 ± 9.1 | > 80 | 89.04 ± 3.37 | GI50 [1, 8]: 60.7 ± 6.31 µM; GI50 [1, 9]: 44 ± 1.83 µM |
| O=C(O[C@@H]1Cc2c(O)cc(O)cc2O[C@@H]1c1cc(O)c(O)c(O)c1)c1cc(O)c(O)c(O)c1 [epigallocatechin gallate] | – | – | – | efficacy against P. dicentrarchi [2]: effective |
| O=c1cc(-c2ccccc2)oc2cc(O)ccc12 [7-hydroxyflavone] | 10 ± 1.52 | 67.4 ± 2.4 | – | – |
| O=C(/C=C/c1ccc(O)c(O)c1)O[C@H](Cc1ccc(O)c(O)c1)C(=O)O [Rosmarinic acid] | 27.1 ± 7.27 | 35 ± 5.51 | – | – |
| CC1(C)CCC[C@]2(C)[C@H]3CC(=O)O[C@]3(C)CC[C@@H]12 [Sclareolide] | – | – | 71.67 ± 6.92 | – |
| O=C(/C=C/c1ccccc1)c1ccc(O)cc1O [2′,4′-dihydroxychalcone] | > 90 | 100 | – | Ciliate Mortality 3 h (%) [1]: 99 ± 0.71%; parasites killed after 24 h ([1]; 24 h): killed all the parasites; GI50 [1, 8]: 7.54 ± 1.31 µM; GI50 [1, 9]: 5.68 ± 0.16 µM; LC100 (lowest concentration resulting in 100% ciliate mortality) [3]: 70 µM; viability at 3 h [4]: 92 ± 2.5%; viability at 24 h [4]: 89.7 ± 1.4%; EPC cells killed [5]: about 10% |
| C[C@@H]1CC[C@H]2C(C)(C)[C@H]3C[C@@]12CC[C@@]3(C)O [Cedrol] | 64.2 ± 3.7 | 66.67 ± 0.33 | – | – |
| CCCCCCc1ccc(O)cc1O [4-hexylresorcinol] | > 90 | 100 | – | Ciliate Mortality 3 h (%) [1]: 95.3 ± 4.05%; parasites killed after 24 h ([1]; 24 h): killed all the parasites; GI50 [1, 8]: 63.3 ± 3.61 µM; GI50 [1, 9]: 40.8 ± 0.11 µM |
